Experimental data: US20060014776A1, “Antitumoral compounds” (Instituto Biomar S.A., priority 2004, published 2006)

Key:
[1] = test system: HCT-116 cells in SCID mice; assay: In vivo therapeutic trials; conditions: for time taken for tumor volume to reach 4-times the initial volume: control 7 days
Procedure: For the in vivo studies HCT-116 cells in SCID mice will be used. Individual mouse body weights for each experiment are within 5 g and all mice are over 17 g at the start of therapy. The mice are supplied food and water ad libidum. The animals are pooled, implanted subcutaneously with 10^7 cultured cells, and pooled again before distribution to treatment and control groups. Chemotherapy is started when the tumors reach a measurable size (about 150 mm^3). Initially, a 1 hour intravenous infusion will be given and the whole animal toxicity and therapeutic effect correlated with the pharmacology studies described above. Dosage levels are usually closely spaced (2-fold increments or 0.5 decrements). All drugs will be administered intravenously. Mice are killed when their tumors reach 1500 mm^3. Tumor weights are estimated from 2-dimensional caliper measurements done twice a week: Tumor Weight (mg)=(a×b^2)/2 • where a and b are the tumor length and width, respectively, in mm.
For this in vivo study with compound IV, 4 mice were in the control group, 4 in the 2 mg/ml and 1 in the 3 mg/ml groups.
The data were analyzed in terms of time taken for tumor volume to reach 4-times the initial volume. For control tumors this was 7 days, for the 2 mg/ml (0.5 mg/mouse; 25 mg/kg) dose, this was 10 days; and for the 3 mg/ml (0.75 mg/mouse; […]), this was 15 days. Thus, at the maximum tolerated dose there was a T/C of about 50%.

H116 human colon cells = assay: Clonogenic assay; assay type: cell-based
Procedure: Concentration- and time-survival studies will be carried out against HCT-116 cells. HCT-116 cells are seeded at 200 to 20,000 cells in 60 mm dishes. Drug is added to the medium (RPMI+10% FBS) at concentrations of 1 mg/ml and 10-fold dilutions thereof. […] The dishes are incubated for 7 days, media removed and the colonies stained with methylene blue. Colonies containing 50 cells or more are counted. The results are normalized to an untreated control. Plating efficiency for the untreated cells is about 90%. Repeat experiments are carried out to define the cell survival range between 100% and […]. Subsequently, a concentration is chosen that yields a survival of 10^−2 at 24 hr and time-survival studies carried out from 0 to 48 hr. Both concentration- and time-survival curves are constructed so that AUC values can be calculated. A comparison of tumor to normal provides a theoretical basis for determining whether a compound might be active in therapeutic trials in vivo.

[2] = mouse, in vivo
Procedure: In this dose calculation stage, the projected starting dose is based primarily on the solubility of the new compound. Potential doses are calculated on the basis of blood volume and total body water in mice.
The starting dose is selected on the basis of solubility of the compound in biologically compatible solvents, and the potency derived from in vitro studies.
To start, one normal SCID mouse is dosed intravenously with the solubilized/formulated compound via a one-hour infusion at a maximum dose of 20 mg/mL. The volume infused is 0.25 ml over the one-hour period. If the animal survives the dosing period, clinical signs are noted, and the animal is sacrificed at two hours post infusion and blood collected for subsequent analytical determinations. Two additional SCID mice are then similarly infused with the compound, one being sacrificed at the end of infusion and blood collected and analyzed for drug concentration. The third animal is housed for 2 weeks to ascertain survival, and then euthanized. During the two-week observation period, the animal will be monitored for clinical signs of distress and euthanized if moribund. The dosing data and pharmacologic information (estimate of half-life) from these three animals will guide the subsequent time-course study by approximating a tolerable dose and clearance of the agent. […]

Pharmacokinetics = assay type: in vivo, male SCID mice bearing H116 tumors; conditions: 18.5 mg/kg
Procedure: Compound IV was administered at 18.5 mg/kg to male SCID mice bearing H116 tumors.
By 24 h after drug administration, the concentration of compound IV is about 100 ng/ml.

H125 (lung) = assay: Disk diffusion soft agar colony formation assay, H125; assay type: cell-based, human
Text: (§1) An in vitro cell-based assay was employed to identify solid tumor selectivity for compound IV. The differential cytotoxicity (Valeriote, F.; Grieshaber, C. K.; Media, J.; Pietraszkiewicz, H.; Hoffman, J.; Pan, M.; McLaughlin, S. J. Exp. Ther. Oncol. 2002, 2, 228-236) is expressed by observing a zone differential between any solid tumor cell (Colon38, ColonH116, Lung H125) and either leukemia cells (L1210 or CEM) or normal cells (CFU-GM). A sample is designated as “solid tumor selective” if (zone units of solid tumor—normal cells or leukemia cells) is greater than 250 units.
(§2) Colon 38 gives a good monodispersed cell suspension with mechanical disruption from a mouse tumor. […]
(§3) All of the human cancer cell lines are maintained in cell culture. […] The cells are passed through an 18-gauge needle twice and the monodispersed suspension counted. […]
(§4) A volume of 15 μl of each sample is dropped onto a 6.5 mm disk (Baxter filter disks). […] The plates are incubated for 7-10 days (depending upon the cell type) and examined by an inverted stereo-microscope (10×) for measurement of the zone of inhibition measured from the edge of the filter disk to the beginning of normal-sized colony formation. […] At some dilution, quantifiable cytotoxicity is invariably obtained.
(§5) • a Measured in zone units: 200 zone units=6 mm. […]

[3] = test system: L1210 (lymphocytic leukemia); assay: Disk diffusion soft agar colony formation assay, L1210; assay type: cell-based, murine; conditions: 7.5 μg/ml
Text: as §1, §2, §3, §4, §5

[4] = test system: CFU-GM-h (colony-forming unit-granulocyte macrophage; normal hematopoietic); assay: Disk diffusion soft agar colony formation assay, CFU-GM-h; assay type: cell-based, human; conditions: 7.5 μg/ml
Text: as §1, §2, §3, §4, §5

H116 (colon) = assay: Disk diffusion soft agar colony formation assay, H116; assay type: cell-based, human
Text: as §1, §2, §3, §4, §5

[5] = test system: C38 (colon adenocarcinoma); assay: Disk diffusion soft agar colony formation assay, C38; assay type: cell-based, murine
Text: as §1, §2, §3, §4, §5

[6] = test system: CFU-GM-m (colony-forming unit-granulocyte macrophage; normal hematopoietic); assay: Disk diffusion soft agar colony formation assay, CFU-GM-m; assay type: cell-based, murine; conditions: 7.5 μg/ml
Text: as §1, §2, §3, §4, §5

CEM (leukemia) = assay: Disk diffusion soft agar colony formation assay, CEM; assay type: cell-based, human
Text: as §1, §2, §3, §4, §5

For `COc1cc(-c2ccnc3c2C(=O)c2ncc(C)cc2C3=O)ccc1OCCCN` [Compound IV], the “time taken for tumor volume to reach 4-times the initial volume” value ([1]; 2 mg/ml (0.5 mg/mouse; 25 mg/kg) dose) was 10 days, the “time taken for tumor volume to reach 4-times the initial volume” value ([1]; 3 mg/ml (0.75 mg/mouse; 38.5 mg/kg)) was 15 days and the T/C ([1]; at the maximum tolerated dose) was “about 50%”. The “concentration at which a therapeutic effect would be obtained” value (H116 human colon cells; 7-day continuous exposure) was ~0.2 µg/mL, the “concentration at which a therapeutic effect would be obtained” value (H116 human colon cells; maintained for a 24 h period) was ~10 µg/mL and the “Lethal Dose” value ([2]; SCID) was 50 mg/kg. For the same molecule, the observation after injection ([2]; 40 mg/kg) was “survived but looked shaky right after injection”, the “concentration attained in the plasma” value (Pharmacokinetics; over at least a 2-h period) was “approximately 1 μg/ml” and the “concentration attained in the tumor” value (Pharmacokinetics; over at least a 2-h period) was “approximately 1 μg/ml”. The concentration at 24 h (Pharmacokinetics; male, SCID, mouse, in vivo, 24 h after drug administration, read-out: concentration of compound IV) was ~100 ng/mL, the “zone of inhibition H125” value (H125 (lung); 1.9 μg/ml) was 600 zone units and the “zone of inhibition H125” value (H125 (lung); 7.5 μg/ml) was >1000 zone units. The “zone of inhibition L1210” value [3] was 500 zone units, the “zone of inhibition CFU-GMh” value [4] was 650 zone units and the “zone of inhibition H116” value (H116 (colon); 1.9 μg/ml) was 350 zone units. The “zone of inhibition H116” value (H116 (colon); 7.5 μg/ml) was 800 zone units, the “zone of inhibition C38” value ([5]; 1.9 μg/ml) was 100 zone units and the “zone of inhibition C38” value ([5]; 7.5 μg/ml) was 550 zone units. The “zone of inhibition CFU-GMm” value [6] was 650 zone units, the “zone of inhibition CEM” value (CEM (leukemia); 1.9 μg/ml) was 150 zone units and the “zone of inhibition CEM” value (CEM (leukemia); 7.5 μg/ml) was 550 zone units.
